Assay results published in patent publication US11478496B2, “Treatments of prostate cancer” (THE FLORIDA INTERNATIONAL UNIVERSITY BOARD OF TRUSTEES, priority 2020, dated 2022).

Key:
pol β = pol β (Homo sapiens, UniProt P06746); experiment: Pol β DNA synthesis on 1-nt gap substrate; format: biochemical
Method: Lane 1 represents the substrate only. Lanes 2 and 3 indicates the reaction mixture with 5 nM LIG I in the absence and presence of DMSO. […] The substrate was ^32P-labeled at the 5′-end of the upstream strand and is illustrated above the gel. The experiments were repeated at least three times. Representative gel is illustrated. Quantification of the results is shown below the gel. Two-way ANOVA with Tukey's multiple comparison posttests was used to determine statistically significant differences. * signifies p<0.05 compared to the control reaction with LIG I and DMSO. […] Lane 1 represents the substrate only. Lanes 2 and 3 indicates the reaction mixture with 5 nM pol β in the absence and presence of DMSO. […] The substrate was ^32P-labeled at the 5′-end of the upstream strand and is illustrated above the gel. The experiments were repeated at least three times. Quantification of the results are shown below the gel. Two-way ANOVA with Tukey's multiple comparison posttests was used to determine statistical significance. * signifies p<0.05 compared to the control reaction with pol β and DMSO.
BER reactions were terminated by adding 2× stopping buffer containing 95% formamide and 10 mM EDTA. Reaction mixtures were then denatured at 95° C. for 5 min and separated by 15% urea-denaturing polyacrylamide gel electrophoresis. Substrates and products were detected and analyzed using a Pharos FX Plus PhosphorImager (Bio-Rad, Hercules, Calif.).

[1] = system: BER reconstituted with purified Pol β, FEN1, and LIG I; experiment: Secondary gel-based BER assay reconstituted with purified core BER enzymes; format: biochemical; details: 10 μM compound, THF substrate
Method: The secondary screening assay was performed as described below in the “Materials and Methods” section. Lane 1 represents the substrate only. Lane 2 indicates the reaction mixture with 5 nM APE1. Lanes 3 and 4 correspond to the reaction mixture with 5 nM APE1, 10 nM pol β, 10 nM FEN1 and 20 nM LIG I in the absence and presence of dimethylsulfoxide (DMSO). Lanes 5 through 19 correspond to the reaction mixture with 5 nM APE1, 10 nM pol β, 10 nM FEN1 and 20 nM LIG I in the presence of indicated compounds. The experiments were repeated at least three times. A representative gel is illustrated.
The hit compounds were subject to secondary assays to determine their ability to reduce the BER capacity when reconstituted with purified core BER enzymes, as well as their inhibitory effects on individual BER enzymes including pol FEN1 and LIG I. The effect of hit compounds on BER capacity and BER enzymes was examined using a denaturing sequencing gel-based assay. 10 μM hit compounds were incubated with 10 nM pol β, 10 nM FEN1 and 20 nM LIG I in BER reaction buffer containing 50 mM Tris-HCl (pH 7.5), 50 mM KCl, 0.1 mM EDTA, 0.1 mg/ml bovine serum albumin, and 0.01% Nonidet P-40 in the presence of 5 mM Mg^2+ and 2 mM ATP. The compounds were initially preincubated with a BER enzyme at varying concentrations for 1 h with rotation. This was followed by the addition of 25 nM ^32P-labeled substrate containing an abasic site, which was precut with 25 or 50 nM APEI. The reaction mixture (20 μL) was incubated at 37° C. for 30 min, and the reaction was terminated by 50 mM EDTA. Substrates, products, and unrepaired BER intermediates were separated by 15% urea-denaturing sequencing gel and detected by a Pharos FX Plus PhosphorImager (Bio-Rad, Hercules, Calif.).
Among the 26 identified compounds, nine were DNA intercalators or inhibitors of human DNA topoisomerases and were excluded from further studies. Thus, […] FDA approved drugs were selected for further testing. To further confirm the inhibitory effects of the lead compounds on BER, the effects of the compounds on BER reactions reconstituted with purified BER core enzymes were initially determined.

PNT1A cells = experiment: RTCA impedance proliferation assay, PNT1A; format: cell-based; details: 10 μM
Method: (6A-6B) PNT1A cells were plated onto xCelligence E-plates at 5×10^4 cells per well in media supplemented with 10% FBS (6A) or CSS (6B). Cells were allowed to attach overnight and treated with vehicle (DMSO) or 10 μM of indicated compounds. Cellular impedance was monitored continuously with 30 min intervals. (6C) RWPE1 cells were plated at 5×10^4 cells per well in serum free medium supplemented with Epidermal Growth Factor (EGF) and Bovine Pituitary Extract ([…]) onto E-plates and treated with 10 μM of indicated compounds as indicated. […] Background impedance was established after incubating E-plates (Acea Biosciences, San Diego, Calif.) with 50 μL media at room temperature for 30 min and placed in RTCA. Cells were then seeded in 100 μL per well. Cells attached overnight and then treated. During attachment stage and after treatment impedance was measured every 30 min. Impedance is represented by cell index and is calculated as follows: CI=(Zi−Zo)/15Ω where Zi is impedance at an individual time point, and Zo is the background impedance. Average CI was calculated from four wells per treatment at each time point and normalized to the impedance immediately after compound addition.

RWPE1 cells = experiment: Cell Titer Glo cell viability assay, RWPE1; format: cell-based; details: 10 μM; after 24 h and 48 h; serum free medium with EGF and BPE
Method: FIGS. 4A-4B show cellular toxicity of lead compounds in nonmalignant androgen independent prostate-derived cell lines. (4A) PNT1A cells were plated in a 96-well plate at 1×10^4 cell/well in the presence of FBS or CSS. Cells were allowed to attach overnight and were treated with either vehicle (DMSO) or 10 μM of indicated compound. At 24 and 48 h, cellular viability was compared using the Cell Titer Glo Luminescent Cell Viability kit. (4B) RWPE1 cells were plated in a 96-well plate at 1×10^4 cells/well using the specified serum free media. Cells were allowed to attach overnight and treated with 10 μM of indicated compound.
Cell viability was determined using the Cell Titer Glo Cell Viability Assay (Promega, Madison, Wis.), as recommended by manufacturer. All experiments were performed in quadruplicate.
Next, whether the same concentration of compounds decreases the viability of the AR negative and nonmalignant prostate derived cells, PNT1A and RWPE1, was tested.

C[C@@H]1C/C=C/C=C/C=C/C=C/[C@H](O[C@@H]2O[C@H](C)[C@@H](O)[C@H](N)[C@@H]2O)C[C@@H]2O[C@](O)(C[C@@H](O)C[C@H]3O[C@@H]3/C=C/C(=O)O1)C[C@H](O)[C@H]2C(=O)O [natamycin]
pol β 1 nt gap-filling synthesis (pol β; FIG. 8B, lanes 5-7): did not inhibit
pol β strand-displacement synthesis (pol β; at 2 nM-5 nM): significant inhibitory effect
reduction of pol β activity (pol β; at 10 (unit not given) natamycin, 5 nM pol β): 3 fold
BER capacity and production of the BER repair product [1]: significantly reduced BER capacity
PNT1A cell proliferation, concentration dependence (PNT1A cells; 1 μM and 0.1 μM, both CSS and FBS medium): inhibited only with 10 μM
time of treatment at which effect on PNT1A proliferation became evident (PNT1A cells; FBS and CSS media): 42 h
PNT1A proliferation (PNT1A cells; both FBS and CSS supplemented media): proliferated in the presence of all inhibitors except natamycin
RWPE1 cell viability (RWPE1 cells): significantly decreased
